According to paper doi:10.1101/404459v1 (biorxiv, 2018):

T1: PbCLK3 (Plasmodium berghei, UniProt A0A509AKE9)
T1 sequence (A0A509AKE9 1-706): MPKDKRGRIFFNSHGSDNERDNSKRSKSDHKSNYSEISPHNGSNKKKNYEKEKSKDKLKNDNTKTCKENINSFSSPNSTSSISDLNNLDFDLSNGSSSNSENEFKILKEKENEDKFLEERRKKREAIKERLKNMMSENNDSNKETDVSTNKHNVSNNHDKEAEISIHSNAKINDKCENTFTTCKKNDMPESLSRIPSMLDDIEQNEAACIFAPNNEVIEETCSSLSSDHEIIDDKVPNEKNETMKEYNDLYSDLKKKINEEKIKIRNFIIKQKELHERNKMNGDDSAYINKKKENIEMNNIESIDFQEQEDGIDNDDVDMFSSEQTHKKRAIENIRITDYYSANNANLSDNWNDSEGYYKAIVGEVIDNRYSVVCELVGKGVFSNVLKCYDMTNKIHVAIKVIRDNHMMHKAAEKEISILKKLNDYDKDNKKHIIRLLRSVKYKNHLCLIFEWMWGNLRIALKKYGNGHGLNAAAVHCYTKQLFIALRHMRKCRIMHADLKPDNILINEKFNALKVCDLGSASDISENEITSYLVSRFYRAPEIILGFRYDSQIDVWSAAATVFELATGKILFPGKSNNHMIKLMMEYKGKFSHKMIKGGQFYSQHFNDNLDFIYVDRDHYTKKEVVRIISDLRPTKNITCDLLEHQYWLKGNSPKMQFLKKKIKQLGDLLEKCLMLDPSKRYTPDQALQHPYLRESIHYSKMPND


Assays:
[1] = molecular target: PvCLK3; assay: TR-FRET kinase assay; type: biochemical, Plasmodium vivax; settings: recombinant kinase
[2] = molecular target: T1, PbCLK3; assay: TR-FRET kinase assay; type: biochemical; settings: recombinant kinase
[3] = substrate: Nc1ncnc2c1ncn2[C@@H]1O[C@H](COP(=O)(O)OP(=O)(O)OP(=O)(O)O)[C@@H](O)[C@H]1O; assay: purified protein; settings: co-substrate ULight-CREBtide; pH […]; […] MgCl2; room temperature

pIC50 [1] | pIC50 [2] | Molecule | Km [3] [µM]
7.86 ± 0.10 | 7.47 ± 0.12 | CCN(CC)Cc1ccc(OC)c(-c2cc3c(-c4ccc(C(=O)O)c(C(C)C)c4)ccnc3[nH]2)c1 [TCMDC-135051] | 
 |  | PfCLK1 (Plasmodium falciparum 3D7) (protein) DDEIVHFSWKKGMLLNNAFLVIRKMGDGTFGRVLLCQHIDNKKYYAVKVVRNIKKYTRSAKIEADILKKIQNDDINNNNIVKYHGKFMYYDHMCLIFEPLGPSLYEIITRNNYNGFHIEDIKLYCIEILKALNYLRKMSLTHTDLKPENILLDDPYFEKSLITVRRVTDGKKIQIYRTKSTGIKLIDFGCATFKSDYHGSIINTRQYRAPEVILNLGWDVSSDMWSFGCVLAELYTGSLLFRTHEHMEHLAMMESIIQPIPKNMLYEATKTNGSKYVNKDELKLAWPENASSINSIKHVKKCLPLYKIIKHELFCDFLYSILQIDPTLRPSPAELLKHKFLE | 30
